# Measured values reported in patent US20190374572A1, “KAOLINIC CLAYS WITH ANTIMICROBIAL ACTIVITY” (IMERYS USA, INC., priority 2017, published 2019).
# Marks after values point to notes of the source that are not given here.
# Tests used:
# E. coli [1] = experiment: UV-visible bacterial assay (optical density at 570 nm); assay type: cell-based
# E. coli [2] = experiment: CFU-based bacterial assay; assay type: cell-based
# Procedure: Each sample set was evaluated using at least one of the following assays: (1) a CFU-based bacterial assay; […] As explained above, following sample incubation the samples were evaluated for the level of bacterial growth using a CFU-based bacterial assay and/or a UV-visible bacterial assay. The CFU-based bacterial assay involves serially diluting samples by various dilution factors, plating the surface of pre-poured LB plates, and manually counting the resulting sample cultures to measure the level of growth based on log10 CFU/ml. CFU per ml were calculated by counting the number of colonies on the plate with growths ranging from 30 and 300, and then applying the equation (1): In this CFU-based bacterial assay, the levels of activity corresponding to the control samples (no E. coli) were set as the zero points.
compound,measurement,setting,value
"O.O.O.O.O.O.O.O=S(=O)([O-])[O-].[Fe+2] [Example 20, iron (II) sulfate heptahydrate]",Antibacterial potential category from OD at 570 nm,E. coli [1],1.172 ^s) (key: Complete Kill Candidate (<0.250); p: Inhibition-Kill Candidate (0.250-0.350); q: Inhibition Candidate (0.351-0.450); <10^8 Growth Candidate (0.451-1.250); Robust Growth Candidate (>1.251))
same,24 Hour log10 CFU/ml,E. coli [2],8.8 log10 CFU/ml
"O.O.O.O.O.O.O.O=S(=O)([O-])[O-].[Fe+2] [Example 21, iron (II) sulfate heptahydrate]",Antibacterial potential category from OD at 570 nm,E. coli [1],0.291 ^q) (key: Complete Kill Candidate (<0.250); p: Inhibition-Kill Candidate (0.250-0.350); q: Inhibition Candidate (0.351-0.450); <10^8 Growth Candidate (0.451-1.250); Robust Growth Candidate (>1.251))
same,24 Hour log10 CFU/ml,E. coli [2],0 log10 CFU/ml
"O.O.O.O.O.O=S(=O)([O-])[O-].[Cu+2] [Example 22, copper (II) sulfate pentahydrate]",Antibacterial potential category from OD at 570 nm,E. coli [1],0.734 ^r) (key: Complete Kill Candidate (<0.250); p: Inhibition-Kill Candidate (0.250-0.350); q: Inhibition Candidate (0.351-0.450); <10^8 Growth Candidate (0.451-1.250); Robust Growth Candidate (>1.251))
same,UV-Vis Abs @ 570 nm (Optical Density (OD)),E. coli [1],0.734 ^r)
same,24 Hour log10 CFU/ml,E. coli [2],7.8 log10 CFU/ml
"O.O.O.O.O.O=S(=O)([O-])[O-].[Cu+2] [Example 23, copper (II) sulfate pentahydrate]",24 Hour log10 CFU/ml,E. coli [2],2.4 log10 CFU/ml
"O.O.O.O.O.O=S(=O)([O-])[O-].[Cu+2] [Example 24, copper (II) sulfate pentahydrate]",Antibacterial potential category from OD at 570 nm,E. coli [1],0.055 ^p) (key: Complete Kill Candidate (<0.250); p: Inhibition-Kill Candidate (0.250-0.350); q: Inhibition Candidate (0.351-0.450); <10^8 Growth Candidate (0.451-1.250); Robust Growth Candidate (>1.251))
same,UV-Vis Abs @ 570 nm (Optical Density (OD)),E. coli [1],0.055 ^p)
same,24 Hour log10 CFU/ml,E. coli [2],0 log10 CFU/ml
